row,SMILES,melting point
1,CNc1cccc(C2C(C(=O)OC)=C(C)NC(C)=C2C(=O)OC)c1,182 to 184 °C
2,CCOC(=O)C1(C(=O)OCC)CCC2(c3cc(OC)c(OC)cc3CCN2C(=O)CC)C(C2c3cc(OC)c(OC)cc3CCN2CC)C1 (centres undefined),138 °C
3,CCOC(=O)CNC(=O)COc1ccc(C=O)cc1,94.5 to 95.5 °C
4,CC(C)NC1=NS(=O)(=O)c2cc(Cl)cc(N)c2N1,> 230 °C
5,O=C(O)CC1CCCc2c1n(Cc1ccc(Cl)cc1Cl)c1c(F)cc(F)cc21 (centres undefined),160 to 161 °C
6,O=C(OCCCl)c1cccc(O)c1,50 °C
7,O=C(Nc1ccc(OCCN2CCOCC2)c2ccccc12)c1cccc(N2CCOCC2)c1,90 to 92 °C
8,COc1ccc2nc(C)cc(NNC(=O)Nc3ccc(N(CCCl)CCCl)cc3)c2c1,184 to 186 °C
9,COc1ccc2c(c1)c(Cc1nc(-c3cccc(Br)c3)cs1)c(C)n2C(=O)c1ccc(Cl)cc1,208 to 212 °C
10,C=C(C)C(=O)Oc1ccc(S(=O)(=O)NCCCC)cc1,59 to 60 °C
11,COC(=O)CCn1c(C)c(Cc2cccnc2)c2c(CCC(=O)O)cccc21,165 to 167 °C
12,CCN1C(=O)C(C)(C)C(=O)N(C)c2cc(CN(CCn3ccc4oc(C)cc4c3=O)Cc3ccc(OC)nc3C)ccc21,155 to 156 °C
13,CC(=O)Nc1ccc(C(=O)c2cc(-c3ccncc3)c(N3CCOCC3)s2)cc1,139 °C
14,CC(C)(C)OC(=O)Nc1cc(N2CCC(O)CC2)c(I)cc1[N+](=O)[O-],58 to 60 °C
15,CS(=O)(=O)c1ccc(-c2cnn(CC(F)(F)F)c(=O)c2N)cc1,> 260 °C
16,CN(C(=O)Nc1ccc(Cl)cc1)c1nnc(Cl)s1,250 °C
17,Clc1ccc2c(c1)C(c1ccccc1)=NCc1nnc(CNC3CC3)n1-2,164 to 169 °C
18,CC(C)NC(=O)c1ccccc1F,76 to 78 °C
19,O=C(CCC1CCCCC1)NC1N=C(C2CCCCC2)c2ccccc2NC1=O (centres undefined),133 to 138 °C
20,CNC(=O)c1snc(-c2cccc(C(F)(F)F)c2)c1N,113 °C
21,CC(C)(C)c1ccc(-c2cccc(-c3ccc(C(C)(C)C)cc3)c2N)cc1,106 °C
22,Clc1ccc(C2CNCCN2)cc1Cl (centres undefined),74 to 76 °C

row,SMILES,melting point
1,CC(=O)N1CCC2(CC1)Cc1cc([N+](=O)[O-])ccc1O2,149 to 150 °C
2,COc1ccc2cnc3c(c2c1)NC(=O)CC3,254 to 256 °C
3,O=c1oc2c(c(O)c1C(c1ccccc1)C1CC1)CCCCCCCC2 (centres undefined),87.6 to 90.4 °C
4,CCc1ccc(C(=O)c2ccc(F)cc2)c(O)c1,44 to 48 °C
5,C=C(Cl)CSC1=C(O)CC(C)(C)CC1=O,103 to 106 °C
6,NS(=O)(=O)c1cc2c(s1)SCCCC2=O,185 to 186 °C
7,CCS(=O)(=O)C(=CNc1ccc(NC=C(S(=O)(=O)CC)S(=O)(=O)CC)cc1)S(=O)(=O)CC,265 to 268 °C
8,O=Cc1cc(Br)c(Cl)cc1[N+](=O)[O-],81 to 82 °C
9,CCOC(=O)C1=C(N)N=C(N)C(C)(C(=O)OCC)C1c1cccc([N+](=O)[O-])c1 (centres undefined),142 °C
10,O=C1CC(c2ccc(F)cc2)Cc2occ(C(F)(F)F)c21 (centres undefined),105 to 106 °C
11,O=C1c2ccccc2CCC1Cc1ccccc1 (centres undefined),50 to 51 °C
12,Cc1nc(Cc2ccccc2)cc(C(=O)O)c1OCCCN(C)C,157 °C
13,Cn1ncc(C(=O)c2ccc(S(C)(=O)=O)cc2Cl)c1O,272 to 275 °C
14,O=C(O)c1ccc2c(c1)S(=O)c1ccccc1CC2 (centres undefined),261 to 265 °C
15,CCOC(=O)/C=C/c1ccc(OCc2nc(C)c(C)nc2C)c(OC)c1,112 °C
16,CCOC(=O)C(C)(C)Oc1ccc2c(-c3ccc(Cl)cc3)noc2c1,70 °C
17,Nc1nc2[nH]c3ccccc3c2c(=O)[nH]1,> 340 °C
18,Oc1cccc(Nc2n[nH]c3ncnc(Nc4cccc(Cl)c4)c23)c1,265 to 266 °C
19,CC1(C)OC(C=Cc2ccoc2)=CC1=O,79 to 80 °C
20,O=C(Nc1ccc2cc(CN3CCCC3)cnc2c1)N1CCC(c2ccc(F)cc2)CC1,239 to 241 °C
21,CC(C)Cc1ccc(C(C)C(=O)OC2OC(=O)c3ccccc32)cc1 (centres undefined),62 to 65 °C
22,COC(=O)C(=O)c1c[nH]c2c1ccc1c3ccccc3[nH]c12,> 290 °C

row,SMILES,melting point
1,NS(=O)(=O)c1ccc(C=Nc2ccc(SSc3ccc(N=Cc4ccc(S(N)(=O)=O)cc4)cc3)cc2)cc1,200 to 230 °C
2,CCOC(=O)c1ccc(NCCCCCCOc2ccccc2)cc1,105 to 108 °C
3,Cn1cc(C2=C(c3c4n(c5ccccc35)CCC(CCN)C4)C(=O)NC2=O)c2ccccc21 (centres undefined),160 to 165 °C
4,CCOC(=O)c1cc(CC)sc1Nc1ccc([N+](=O)[O-])cc1N,174 to 176 °C
5,CCCn1cc(C(N)=O)c(N)n1,160 to 163 °C
6,COC(=O)c1ccccc1-c1nc(COc2ccc(CO)cc2OC)c(C)o1,100 to 101 °C
7,Cc1ccc(N2C(=O)C3=C(SCCO3)C2OC(=O)N2CCN(C)CC2)nc1 (centres undefined),183 °C
8,CN1C(=O)C(C)(C)N=C(c2ccccc2Cl)c2c1ccc(N)c2Br,188 to 189 °C
9,Cc1ccc(CSc2ccc(Cl)cc2)cc1,72 to 73 °C
10,Cn1c(C#N)c(-c2ccc(F)cc2)c2cccnc2c1=O,231 to 232 °C
11,N#Cc1cnn(-c2c(Cl)cc(C(F)(F)F)cc2Cl)c1N1CCC1=O,162 to 164 °C
12,COC(=O)[C@@H](CCN1C(=O)c2ccccc2C1=O)Oc1c(Br)cc(-c2c(Br)ccc3sc4ccccc4c23)cc1Br,99 to 101 °C
13,COc1ccc(OC)c(Sc2nc3c(N)ncnc3n2CCC=C(C)C)c1,148 to 150 °C
14,C[C@H](CO)CN1CCC(c2noc3cc(F)ccc23)CC1,119 to 121 °C
15,CC(C)(C)c1cc(C2=Cc3cc(-c4ccccc4)ccc3C2)cc(C(C)(C)C)c1,122 to 123 °C
16,COc1ccc(-c2c(NC(C)C(C)(C)C)c(=O)c2=O)cc1 (centres undefined),179 to 181 °C
17,CC1CCN(c2occ(C(C)(C)C)c2C#N)C1=O (centres undefined),88 to 90 °C
18,CCOc1ccc(CC(NC(C)=O)C(=O)O)cc1OCC (centres undefined),149 to 151 °C
19,COC(=O)NC1=NCC(c2ccccc2C)N1C (centres undefined),158 to 161 °C
20,CCOC(=O)c1c(SC)nc(-c2ccc(SC)cc2)n(-c2ccc(F)cc2)c1=O,151 to 155 °C
21,CN=C(C1=C(O)C(=O)c2ccccc2C1=O)c1ccccc1,235 to 237 °C
22,CCOP(=O)(OCC)c1cc2c(c(C)c1-c1c(OC)ccc3ccccc13)COC2,136 to 138 °C

# Results, then the compound that gave them:
row,melting point,SMILES
1,135 to 137 °C,Cc1ccccc1N1CCc2nnc3c(C)cccc3c21
2,120 to 123 °C,COc1ccc(CSCC2NC(=O)C2NC(=O)OC(C)(C)C)cc1 (centres undefined)
3,221 to 223 °C,COc1cccc([C@H]2O[C@H](CC(=O)NS(C)(=O)=O)C(=O)N(CC(C)(C)CO)c3ccc(Cl)cc32)c1OC
4,138 to 140 °C,CC1(C)CCCC1CNC(=O)C=Cc1ccc(C(=O)O)cc1 (centres undefined)
5,200 °C,Nc1nc2cc3c(cc2s1)OCO3
6,32 °C,CCCCCCCCCCCCCCCCOCC(CF)COC(c1ccccc1)(c1ccccc1)c1ccccc1 (centres undefined)
7,194 to 196 °C,Cc1cc(Cn2c(-c3ccccc3)nc(Cl)c2CC#N)ccc1O
8,> 300 °C,OCCn1cnc2c(O)nc3ccccc3c21
9,141 to 142 °C,COc1ccc2nc(NC(=O)COC(=O)C(C)C)sc2c1
10,80 to 93 °C,COC(=O)C=CC(CNC(=O)C(C)(Cc1c[nH]c2ccccc12)NC(=O)OC1C2CC3CC(C2)CC1C3)c1ccccc1 (centres undefined)
11,205 to 207 °C,O=C(NCc1ccc(F)cc1)c1cn2nc(N3CCN(C(=O)c4ccccc4C(F)(F)F)CC3)ccc2n1
12,144 to 145 °C,CC(=O)Nc1ccc(N2C(=O)C3CCC2n2c(=O)n(-c4ccccc4)c(=O)n23)cc1 (centres undefined)
13,237 °C,CC(=O)C1=C(O)C(=C(C)Nc2cccc(S(N)(=O)=O)c2)C(=O)OC1=O
14,201 to 203 °C,CCNC1CCN(c2c(F)cc3c(=O)c(C(=O)O)cn(C4CC4)c3c2C)CC1(C)C (centres undefined)
15,60 to 62 °C,CCOC(=O)c1nn(-c2ccc(CP(=O)(OCC)OCC)cc2)nc1C
16,175 to 176 °C,O=c1c(-c2ccccc2)c(-c2ccccc2)sn1-c1ccccc1
17,137 °C,CN1CCN(c2ncc(-c3ccc(Cl)cc3Cl)c(N)n2)CC1

row,melting point,SMILES
1,124 to 126 °C,Cn1cc(C2=C(c3c4n(c5ccccc35)CCC(CNC(=O)OC(C)(C)C)C4)C(=O)OC2=O)c2ccccc21 (centres undefined)
2,156 °C,Cc1cc(NC(=O)Nc2cccc3c2C2CCCCN2C3=O)no1 (centres undefined)
3,163 to 166 °C,O=C1CCC(N2C(=O)c3ccccc3C2=O)c2ccsc21 (centres undefined)
4,145 to 149 °C,CCC(O)=C1SC(=S)N(c2ccc(Cl)cc2)C1=O
5,133 to 134 °C,CCOC(=O)C(=O)NNC(=O)c1cc2cccc(N(C)S(=O)(=O)c3cccs3)c2[nH]1
6,168 to 170 °C,CC(=O)NCC1(C)CC(O)c2ccccc2O1 (centres undefined)
7,181 to 191 °C,N=C(N)N(CCCCCCCCCCC(=O)O)C(=O)c1nc(Cl)c(N)nc1N
8,238 to 240 °C,CCC(C)(C)c1ccc(Oc2ccc(C(F)(F)F)cc2NC(=O)Nc2cc(C(F)(F)F)cc(C(F)(F)F)c2)c(C(=O)O)c1
9,220 °C,CNCC(=O)N[C@@H](CCCNC(=N)N)C(=O)N[C@@H](CCCNC(=N)N)C(=O)N[C@@H](C)P(=O)(O)O
10,97 to 98 °C,CCCCCS(=O)(=O)NC(=O)/C(C)=C/c1ccc(OCCOC)cc1Oc1ncc(Cl)cc1Cl
11,90 to 91 °C,CC(=O)OCC1OC(n2c(Cl)nc3cc(F)c(F)cc32)C(OC(C)=O)C1OC(C)=O (centres undefined)
12,199 to 203 °C,CCCCc1ncc(/C=C(\Cc2cccs2)C(=O)O)n1Cc1ccc(C=CC(=O)O)cc1
13,83 °C,COC(=O)CCCc1cc2nc(Cl)ccc2n1S(=O)(=O)c1ccccc1F
14,164 to 172 °C,CCC(=O)N1CCC(NC(=O)NC2CCCCCC2)CC1
15,120 °C,ON=C(c1cc(F)cc(F)c1)c1cccc2nc(N[C@@H]3CCc4ccccc43)ccc12
16,93 to 95 °C,CCC1CCC(Oc2cc(F)cc(C(=O)Nc3ccc(OCc4ccncc4)c4ccccc34)c2)CC1 (centres undefined)

# — a melting point compilation (Tetko et al.; mined from patent text by program, amines drawn as free bases though some values may be those of a salt)
